Results as given in US20120322699A1, “Method of Preventing Scale Formation During Enhanced Oil Recovery” (Chevron U.S.A. Inc., priority 2011, published 2012).

Tests used:
[1] = Initial screening of complexing agents and scale inhibitors with synthetic brine; type: physicochemical; conditions: for Maximum pH: complexing agents, synthetic brine 1,000 ppm Ca2+/Mg2+, 450 ppm HCO3-
Method: Eight different metal complexing agents and five commercial scale inhibitors were tested according to known laboratory methods with a synthetic brine containing 1,000 ppm of divalent cation (Ca^2+/Mg^2+) and 450 ppm of HCO3^−. Among the complexing agents tested, six were organic ligands with carboxylate moieties and two were inorganic phosphates. The five scale inhibitors tested were commercial products supplied by Nalco Chemicals based on phosphonate, acrylate and sulfonate.

[2] = Bottle test of scale prevention capacity of metal complexing agents; type: physicochemical
Method: Scale prevention capacity of the metal complexing agents were then tested using the following bottle test procedure: • 1. Synthetic field brine was prepared with NaCl and NaHCO3 (constituents of the brine) but CaCl2 and MgCl2 content was temporarily withheld to avoid premature scaling. • 2. Metal complexing agent was added to the brine above in a stoichiometrically required amount and at higher concentrations and the solution was allowed to equilibrate after thorough mixing. • 3. CaCl2 and MgCl2 were added and the brine solutions were equilibrated. • 4. In a preliminary test, the impact of pH alone was evaluated. […] If no scale was observed, step 4 was repeated with addition of Na2CO3.

[3] = at 25° C.; cited from earlier work
[4] = Final bottle tests of formulations at lower agent concentrations with scale inhibitors; type: physicochemical
Method: Based on the above results, two commercial scale inhibitors were combined in synthetic brine with the metal complexing agents. The pH of the solutions was raised by addition of 1.0M NaOH to simulate the basic environment during an alkaline flood. The following procedure was used to prepare the aqueous solutions: • 1. Synthetic field brine was prepared by temporarily excluding the HCO3^−. • 2. Scale inhibitor was added and the solution was allowed to equilibrate after thorough mixing. • 3. Metal complexing agent was added to the brine above in concentrations near half of the stoichiometrically required amount and the solution was allowed to equilibrate after thorough mixing. • 4. NaHCO3 was added and the brine solutions were equilibrated. • 5.

[5] = Initial bottle tests with BASF complexing agents without changing the pH; type: physicochemical; conditions: equimolar concentration (7,350 ppm) with the calcium ions, hard brine
Excerpt: The initial bottles tests were designed at the reported calcium binding capacity of the agents without changing the pH.

[6] = agent 1.1 %, alkali Na2B2O4, pH 9.97
[7] = agent 1.1 %, alkali Na2B2O4, pH 10.10
[8] = agent 1.1 %, alkali Na2B2O4, pH 10.15
[9] = agent 1.1 %, alkali Na2CO3, pH 10.60
[10] = agent 1.1 %, alkali Na2CO3, pH 10.69
[11] = agent 1.1 %, alkali Na2CO3, pH 10.77
[12] = agent 1.5 %, alkali NaOH, pH 8.80
[13] = agent 0.8 %, alkali Na2B2O4, pH 10.10
[14] = agent 1.5 %, alkali Na2B2O4, pH 10.10
[15] = agent 1.5 %, alkali Na2CO3, pH 10.10
[16] = agent 1.5 %, alkali NaOH, pH 10.20

CC(=O)ON(CCN(OC(C)=O)OC(C)=O)OC(C)=O.[Na] [EDTA-Na4, sodium ethylenediamine tetraacetate]
pH value up to which effective ([1]; 11,000 ppm in hard field brine (equimolar Ca:EDTA)): ≤ 10.7
Maximum pH [1]: 10.7
Status (next day) [2, 6]: clear
Status (same day) [2, 6]: clear
Status (next day) [2, 7]: clear
Status (same day) [2, 7]: clear
Status (next day) [2, 8]: clear
Status (same day) [2, 8]: clear
Status (next day) [2, 9]: clear
Status (same day) [2, 9]: clear
Status (next day) [2, 10]: clear
Status (same day) [2, 10]: clear
Status (next day) [2, 11]: clear
Status (same day) [2, 11]: clear

O=P(O)(O)OP(=O)(O)OP(=O)(O)O [Sodium tripolyphosphate]
Status (next day) ([2]; agent 1.15 %, no alkali added): scale
Status (same day) ([2]; agent 1.15 %, no alkali added): scale
Status (next day) ([2]; agent 1.5 %, no alkali added): scale
Status (same day) ([2]; agent 1.5 %, no alkali added): scale
Status (next day) ([2]; agent […], no alkali added): scale
Status (same day) ([2]; agent […], no alkali added): scale
water solubility [3]: 14.5 g/100 mL

O=P([O-])([O-])OP(=O)([O-])[O-].[K+].[K+].[K+].[K+] [Tetrapotassium pyrophosphate]
Status (next day) [2, 12]: scale
Status (same day) [2, 12]: scale

O=C(O)CN(CCN(CC(=O)O)CC(=O)O)CC(=O)O [EDTA, ethylenediaminetetraacetic acid]
complexing agent concentration when used with scale inhibitor ([4]; in combination with 200 ppm VX9400): 7,500 ppm

CC(C(=O)O)N(CC(=O)O)CC(=O)O (stereo not shown) [MGDA, methylglycinediacetic acid]
pH value up to which scaling prevented [5]: ≤ 9.9
complexing agent concentration when used with scale inhibitor ([4]; in combination with 500 ppm VX9400): 5,500 ppm

O=C([O-])CC(O)(CC(=O)[O-])C(=O)[O-].[Na+].[Na+].[Na+] [Sodium citrate, sodium citrate]
overall assessment from bottle test results [2]: not a successful selection
Status (next day) [2, 13]: scale
Status (same day) [2, 13]: clear
Status (next day) [2, 14]: scale
Status (same day) [2, 14]: clear
Status (next day) [2, 15]: scale
Status (same day) [2, 15]: scale

O=C([O-])CN(CC(=O)[O-])CC(=O)[O-].[Na+].[Na+].[Na+] [NTA-Na3, sodium nitrilotriacetate]
Status (next day) ([2]; agent 0.8 %, no alkali added): scale
Status (same day) ([2]; agent 0.8 %, no alkali added): scale
Status (next day) ([2]; agent 1.1 %, no alkali added): scale
Status (same day) ([2]; agent 1.1 %, no alkali added): scale
Status (next day) ([2]; agent 1.5 %, no alkali added): scale
Status (same day) ([2]; agent 1.5 %, no alkali added): scale

O.O=C([O-])/C=C\C(=O)[O-].[Na+].[Na+] [Sodium maleate, sodium maleate monohydrate]
Maximum pH [1]: 10.2
overall assessment from bottle test results [2]: promising results
Status (next day) [2, 16]: clear
Status (same day) [2, 16]: clear
